Measurements as given in patent publication US20060057669A1, “Inactive transcription factor tif-ia and uses thereof” (priority 2002, published 2006).

Legend:
Pol I transcription [1] = assay: In vitro transcription: TIF-IA mutants restoring rDNA transcription of nuclear extract from density-arrested FM3A cells; format: biochemical, murine
Protocol: (A) Transcriptional activity of TIF-IA mutants in vitro. FLAG-tagged wild-type TIF-IA and the indicated single or double point mutants were overexpressed in HEK293T cells, immunopurified, and 20 and 40 ng were assayed for their capability to restore rDNA transcriptional activity of nuclear extract from density-arrested FM3A cells. The amount and purity of TIF-IA were estimated on silver-stained SDS-polyacrylamide gels and Western blots (data not shown).
(A) Transcriptional activity of TIF-IAS199A and TIF-IAS199D in vitro. FLAG-tagged wild-type TIF-IA and the indicated mutants were immunopurified from HEK293T cells, and 30 and 60 ng were assayed for their capability to restore transcriptional activity of nuclear extract from density-arrested FM3A cells. The amount and purity of TIF-IA were estimated on silver-stained SDS-polyacrylamide gels (data not shown).
(B) Transcriptional activity of TIF-IAS44A in vitro. FLAG-tagged wild-type TIF-IA and the indicated mutant were assayed for their transcriptional activity in vitro.
(§1) Nuclear extracts were prepared from exponentially growing (8×10^5 cells/ml), density-arrested or PD98059-treated (CN Bioscience, Bad Soden, Germany) 40 μM, 0.5 hr) or rapamycin-treated FM3A cells (ATCC, Manassas, USA). 25 μl assays contained 50 ng of template DNA (pMr600/EcoRI), 30 μg nuclear extract proteins and 12 mM Hepes-KOH, [pH8.0], 0.1 mM EDTA, 5 mM MgCl2, 80 mM KCl, 10 mM creatine phosphate, 12% (v/v) glycerol, 0.66 mM each of ATP, GTP and CTP, 0.01 mM UTP and 0.5 μCi [α-^32P]UTP (5000 Ci/mmol). After incubation for 60 min at 30° C., RNA was extracted and analyzed on non-denaturing 5% polyacrylamide gels
TIF-IA was immunopurified from untransfected NIH3T3 cells or from HEK293T cells overexpressing FLAG-tagged TIF-IA. 4×10^6 cells were lysed in 0.8 ml IP buffer (20 mM Tris-HCl [pH 7.4], 200 mM NaCl, 2 mM EDTA, 2 mM EGTA, 1% Triton X-100, 0.5 mM PMSF, 1 μg/ml aprotinin, 5 μg/ml leupeptin and 1 μg/ml pepstatin A), centrifuged at 10,000 g for 30 min, and the supernatants were incubated for 4 hr at 4° C. with either 10 μg anti-TIF-IA antibodies bound to 20 μl protein G-agarose or with anti-FLAG (M2) agarose (Sigma-Aldrich Corp., Missouri, USA). The immunocomplexes were successively washed with buffer AM (20 mM Tris-HCl [pH 8.0], 5 mM MgCl2, 0.1 mM EDTA, 20% glycerol) containing 400 and 100 mM KCl, respectively. The amount and purity of TIF-IA was estimated on silver-stained polyacrylamide gels and similar amounts of bead-bound TIF-IA were used in in vitro transcription assays. GST fusion proteins were expressed in E. coli BL21(DE3) and purified on Glutathione-Sepharose 4B according to the manufacturer's instructions.
To assess the functional relevance of S633 and S649 phosphorylation on transcriptional activity, the respective S→A and S→D single or double point mutants were purified from transfected cells and assayed for their capability to rescue transcription of extracts from density-arrested cells. […] Thus, phosphorylation of TIF-IA at S649 and S633 is required for transcriptional activity.
Phosphorylation of peptide a should inhibit TIF-IA activity, while phosphorylation of peptide b, e.g. S44, should augment TIF-IA activity.

HEK293T cells = assay: Quantitative fluorimetric viability assay with calcein-AM; format: cell-based; conditions: 24, 36, 48 and 60 hr after transfection; 2 μM calcein-AM
Protocol: (B) Quantitative fluorimetric viability assay with calcein-AM. HEK293T cells were transfected with TIF-IA or the indicated point mutants. […] Viable cells were measured 24, 36, 48 and 60 hr after transfection by incubation with […] calcein-AM. The gradual increase in fluorescence intensity was recorded with a fluorescence multi-well plate reader for 20 min with an excitation wavelength of 485 nm and an emission wavelength of 530 nm. The proliferation rate of mock-transfected cells and cells overexpressing TIF-IA is shown at the left. Plots show the accumulation of calcein fluorescence (arbitrary units) against time. Growth rates calculated from linear regression curves are shown at the right. Values are presented as the mean±SD from three independent experiments performed in duplicates.
Conversion of calcein-AM (calcein acetoxymethyl ester, (CN Bioscience GmbH, Bad Soden, Germany) to calcein was used to measure cell proliferation. 12 hr after transfection, HEK293T cells were seeded to 96-well micro-plates at 1×10^4 cells/well. After 24, 36, 48 and 60 hr, cells were washed with PBS, incubated with 2 μM calcein-AM, and the gradual increase in fluorescence intensity within the cells was recorded by a fluorescence multi-well plate reader (CytoFluor Series 4000/TC, PerSeptive Biosystems, (Applied Biosystems, Forster City, USA) for 20 min in 1 min intervals. Excitation wavelength used for measurements of fluorescence was 485 nm with a bandwidth of 20 nm; emission wavelength was 530 nm with a bandwidth of 25 nm. Under the experimental conditions used, there is a direct correlation between the accumulation ratio of intracellular calcein fluorescence and the number of viable cells. The data from three independent experiments were analyzed by Sigmaplot and expressed as the mean±standard deviation. For statistical analysis, student's t test was used. Differences with a P<0.01 were considered statistically significant.
Given the functional significance of ERK/RSK-directed TIF-IA phosphorylation on Pol I transcription, mutations that enhance or abrogate TIF-IA activity may have a positive or negative effect on cell growth. To test this, HEK293T cells were transfected with cDNAs encoding wild-type or mutant TIF-IA which harbor single or double point mutations at S649 and S633. The expression of TIF-IA was estimated on Western blots and the cellular growth rate was measured by calcein-AM staining. Calcein-AM is a non-fluorescent, hydrophobic compound that is rapidly hydrolyzed by intracellular esterases releasing hydrophilic fluorescent calcein. Thus, cellular calcein fluorescence correlates with the amount of viable cells. […] Cells expressing FLAG-tagged wild-type or mutant TIF-IA were stained with FITC-conjugated anti-FLAG antibodies, identified by FACS and cell numbers were calculated by measuring the ratio of stained cells versus an internal standard. […] Conversely, the number of cells expressing TIF-IAS649A was 33% lower than the control. […] Taken together, the results reveal a striking correlation between phosphorylation of TIF-IA at serine 649, cellular rRNA synthetic activity and cell cycle progression.

TIF-IB/SL1 = assay: Co-immunoprecipitation of TIF-IB/SL1 with TIF-IA mutants from HEK293T cells; format: binding, human
Protocol: (§2) (B) A mutant that mimics phosphorylation of TIF-IA at S199 fails to interact with Pol I and TIF-IB. FLAG-tagged wild-type TIF-IA or the indicated point mutants were overexpressed in HEK293T cells and immunoprecipitated from cell lysates with anti-FLAG antibodies (M2 agarose). Co-precipitated Pol I and TIF-IB/SL1 were visualized on Western blots with anti-RPA116 and anti-TAFI110 antibodies.
(§3) Immunoprecipitations were carried out from human cells overexpressing FLAG-tagged TIF-IA. Cells were lysed in IP buffer, cleared by centrifugation at 10,000×g for 30 min, and the supernatants were incubated for 4 hr at 4° C. with anti-FLAG (M2) agarose (Sigma). To analyze the interaction of TIF-IA with TIF-IB/SL1, the immunoprecipitates were washed with IP buffer and TIF-IB/SL1 was visualized on immunoblots with α-TAFI110 antibodies. To monitor the interaction of TIF-IA with Pol I, the immunoprecipitates were washed with IP buffer containing 600 mM NaCl and Pol I was analyzed on Western blots using antibodies against the second largest subunit of Pol I (RPA116) or PAF67 (Seither et al., J. Biol. Chem. 382 (2001), 1163-1170).
(§4) Given the importance of mTOR-mediated alterations in the phosphorylation pattern on TIF-IA activity, one could predict that either phosphorylation of S199, dephosphorylation of S44 or both regulate the interaction of TIF-IA with the Pol I transcription apparatus. It was therefore examined whether the S→A or S→D point mutant(s) were capable of interacting with Pol I and/or TIF-IB/SL1. For this, TIF-IA was precipitated from cells overexpressing either FLAG-tagged wild-type TIF-IA or the respective S199 and S44 mutant(s), and co-precipitated Pol I and TIF-IB/SL1 were visualized on Western blots.

Pol I = assay: Co-immunoprecipitation of Pol I with TIF-IA mutants from HEK293T cells; format: binding, human
Protocol: as §2, §3, §4

Pol I transcription [2] = assay: In vitro transcription: TIF-IA mutants added to nuclear extract from exponentially growing FM3A cells; format: biochemical, murine; conditions: 20 and 40 ng added to 15 ug nuclear extract
Protocol: 20 and 40 ng of the indicated TIF-IA mutants were added to 15 ug nuclear extract from exponentially growing FM3A cells and rDNA transcription was assayed.
as §1
Given that phosphorylation of TIF-IA at serine 649 is essential for transcription, excess of TIF-IAS649A should impair Pol I transcription. To test this, we examined the effect of exogenous wild-type and mutant TIF-IA on transcriptional activity of extracts from exponentially growing cells.

[3] = S633/S649 mutants, 20 and 40 ng
[4] = S199 and S44 mutants, 30 and 60 ng

Substance	capability to rescue transcription of extracts from density-arrested cells (Pol I transcription [1]; [3])	cellular growth rate by calcein-AM staining (HEK293T cells)	interaction with TIF-IB/SL1 (co-precipitated TAFI110) (TIF-IB/SL1)	interaction with Pol I (co-precipitated RPA116) (Pol I)	capability to rescue transcription of extracts from density-arrested cells (Pol I transcription [1]; [4])	effect on transcriptional activity of extracts from exponentially growing cells (Pol I transcription [2])
S633D: TIF-IA point mutant, serine 633 replaced by aspartic acid	less active than wild-type TIF-IA	–	–	–	–	–
TIF-IAS633AS649A: TIF-IA double mutant, serines 633 and 649 replaced by alanine	abolished TIF-IA activity	impaired cell growth	–	–	–	–
TIF-IAS199A: the mutant in which S199 was changed to alanine	–	–	interacted with both Pol I and TIF-IB/SL1	interacted with both Pol I and TIF-IB/SL1	activated Pol I transcription like wild-type TIF-IA	–
TIF-IAS633A: TIF-IA point mutant, serine 633 replaced by alanine	abolished TIF-IA activity	–	–	–	–	suppressed transcription well below the basal level
TIF-IAS199D: TIF-IA mutant, replacement of S199 by aspartic acid	–	–	no association of either Pol I or TIF-IB/SL1 could be detected	no association of either Pol I or TIF-IB/SL1 could be detected	abolished TIF-IA activity	–
TIF-IAS633DS649D: TIF-IA double mutant, serines 633 and 649 replaced by aspartic acid	TIF-IA activity was increased	accelerated cell growth	–	–	–	–
